Test results: PubChem BioAssay (NCI)
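In this assay, cells in 96-well plates receive the compound at five concentrations for 48 hours. Endpoints are linearly interpolated between the surrounding concentrations. GI50: concentration for 50% inhibition of growth. The concentration for full growth arrest is given as TGI.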

What was measured:
Experiment in all cases: DTP human tumour cell line panel, 48 h
K-562 leukemia = tested on: K-562 leukemia
RXF 393 renal = tested on: RXF 393 renal
LOX IMVI melanoma = tested on: LOX IMVI melanoma
HOP-62 NSCLC = tested on: HOP-62 NSCLC
HL-60(TB) leukemia = tested on: HL-60(TB) leukemia
OVCAR-5 ovarian = tested on: OVCAR-5 ovarian
CCRF-CEM leukemia = tested on: CCRF-CEM leukemia
UACC-257 melanoma = tested on: UACC-257 melanoma
CAKI-1 renal = tested on: CAKI-1 renal
SNB-75 CNS = tested on: SNB-75 CNS

SMILES	TGI (K-562 leukemia) [µM]	TGI (RXF 393 renal) [µM]	TGI (LOX IMVI melanoma) [µM]	TGI (HOP-62 NSCLC) [µM]	TGI (HL-60(TB) leukemia) [µM]	TGI (OVCAR-5 ovarian) [µM]	TGI (CCRF-CEM leukemia) [µM]	TGI (UACC-257 melanoma) [µM]	TGI (CAKI-1 renal) [µM]	TGI (SNB-75 CNS) [µM]	GI50 (K-562 leukemia) [µM]	GI50 (RXF 393 renal) [µM]	GI50 (LOX IMVI melanoma) [µM]	GI50 (HOP-62 NSCLC) [µM]	GI50 (HL-60(TB) leukemia) [µM]	GI50 (OVCAR-5 ovarian) [µM]	GI50 (CCRF-CEM leukemia) [µM]	GI50 (UACC-257 melanoma) [µM]	GI50 (CAKI-1 renal) [µM]	GI50 (SNB-75 CNS) [µM]
COc1cc2c([C@@H](OC(=O)c3ccccc3)c3ccc4c(c3)OCO4)nccc2c(OC)c1OC	> 100	85.3	> 100	> 100	92.9	> 100	> 100	> 100	> 100	> 100										
C[C@@H](Oc1ccc2[nH]nc(/C=C/c3cnn(CCO)c3)c2c1)c1c(Cl)cncc1Cl	> 33.9	0.267	0.281	3.06	3.21	2.29	5	6.29	> 100	0.561	0.0249	0.0288	0.0593	0.108	0.237	0.166	0.105	1.43	0.184	0.159
NC(Cc1ccnnc1)C(=O)O (stereo unspecified)	> 100	> 100	> 100	> 100	> 100	> 100	> 100	> 100	> 100	> 100										
O=C1c2ccn(CCCCN3CCCCC3)c2C(=O)c2c1c(O)c1ccccc1c2O		18	4.3	35.4	> 100	> 46	4.61	12.2	3.83	> 73.8	2.68	5.54	1.72	13.4	24.5	17.9	1.95	5.83	1.63	8.45
CCOC(=O)N[C@H]1CCc2c(Br)c(OC)c(OC)c(OC)c2-c2ccc(SC)c(=O)cc21	> 38.2	13.8	12.5	41.2	0.0131	25.6	> 42	45.2	19.6	16.1	< 0.01	< 0.01	< 0.01	0.0232	< 0.01	0.0357	< 0.01	8.64	< 0.0228	< 0.01
CCCCCC(O)(CCCCC)CCCCCCCCC1=C(O)c2[nH]c(=O)ccc2C(=O)C1=O	26.7	21.4	24	24.9	23.6	35	48.1	14.3	32	32.3										
C[C@]12C3CC[C@@]4(CO)C[C@]3(CCC1[C@](C)(C(=O)O)CC[C@@H]2O)CC4=O (stereo partly specified)	> 100	> 100	> 100	> 100	> 100	> 100	> 100	> 100	> 100	> 100	> 100	> 100	> 100	> 100	> 100	> 100	> 100	> 100	> 100	> 100
O=c1c2ccccc2nc(-c2ccccc2)n1O	> 100	> 100	> 100	37.4	> 100	> 100	> 100	> 100	> 100	> 100										
CC1CCP(=O)(c2ccccc2)CC1 (stereo unspecified)	> 100	> 100	> 100	> 100	> 100	> 100	> 100	> 100	> 100	> 100										
CCCCCCCCCCCC(O)=C1C(=O)CC(O)CC1=O (stereo unspecified)	> 100	> 100	> 100	> 100	58.7	> 100	> 100	> 100	> 100	> 100										
O=S(=O)(O)/C(=C\c1ccccc1)c1ccccc1 (tested in a mixture with another compound)	> 100	> 100	> 100	> 100	> 100	> 100	> 100	> 100	> 100	> 100										
COc1ccc(-c2nnc(N3CCN(C(=O)CN4CCN(c5ccc(Cl)cc5)CC4)CC3)nc2-c2ccc(OC)cc2)cc1	> 100	> 100	> 100	81.1	52.3	> 100	> 100	> 100	> 100	65.3	15.2	18.9	15.6	26.2	10.7	> 100	48	59.4	28.5	19.5
Cc1ccc2c(c1)O/C(=C\c1ccc([N+](=O)[O-])o1)C2=O	2.04	2.74	3.1	6.48	5.09	4.75	2.61	3.31	2.94	> 100	0.388	1.34	1.47	2.27	1.92	2.4	0.424	1.54	1.41	2.85
CC(=O)c1cc2c(c3ccsc13)-c1ccccc1CC2	90.5	> 100	> 100	> 100	> 100	> 100	62.1	> 100	> 100	> 100	14.3	28.6	32.3	36.4	30.8	39.4	21.7	47.1	29.4	> 100
O=C(Nc1ccccc1O)c1ccc(CNC(=O)c2sccc2Nc2ccnc(C(F)(F)F)c2)cc1	62.5	15.6	18.9	42.7	44.8	24.6	> 100	38.1	23.9	44.5	5.72	3.28	5.51	10.9	6.27	5.9	1.01	4.61	6.63	4.96
COc1ccc(Cl)cc1NC(=O)c1cccc([N+](=O)[O-])c1O	> 100	53.2	> 84.2	21.4	> 69.6	> 100	> 100	> 67.9	> 64.8	> 88.3										
CC(=O)/C=C/C1=C(c2cccs2)c2ccccc2CC1	> 100	78.9	34.2	88	> 100	> 100	54.2	41.7	> 100	68.1	32.5	31.8	17.8	33.8	20.7	60.7	25.3	19.7	41	25.6
C#Cc1cccc(Oc2ccc(NC(=O)CCl)cc2)c1	> 82.5	> 82.5	> 82.5	> 82.5	> 82.5	> 82.5	> 82.5	> 82.5	> 82.5	> 82.5	34.4	> 82.5	18.1	> 82.5	63.4	> 82.5	5.82	> 82.5	> 82.5	> 82.5
COc1ccc(CC(NC(=O)[C@H](C)NC(=O)CN2CCOCC2)C(=O)N[C@@H](Cc2ccccc2)C(=O)[C@@]2(C)CO2)cc1 (stereo partly specified)		0.658	0.379	0.453		1.19	> 100		> 57.8	0.427	0.268	0.237	0.148	0.191	0.157	0.272	0.0859	0.296	4.29	0.175
CCCCCCCCCCCCCC(=O)C(C)N (stereo unspecified)	11.1	17	3.66	16.9	10.4	23.8	27.2	34.1	22.6	20.7	2.41	4.46	1.88	4.76	2.65	10.6	8.35	18.6	10	6.56
NCCP(=O)(O)O	> 100	> 100	> 100	> 100	> 100	> 100	> 100	> 100	> 100	> 100										
COC(=O)C1(C2CC/C(C)=C/CC/C(C)=C/CC[C@@]3(C)O[C@@H]3C2)CC1 (stereo partly specified)	99.6	> 100	> 60.5	65.8	> 83.5	> 100	65.3	> 100	> 85	> 100	29.1	> 38.2	23.6	25.8	25.2	> 100	25.7	> 83.7	32.1	> 100
